# Measured values as given in patent US7211597B2, “Substituted pyrazolyl compounds for the treatment of inflammation” (priority 2001, dated 2007).
# Biological target: T1, IKK heterodimer (rhIKK1/IKK2) (Homo sapiens, UniProt O14920+O15111)
# T1 construct: made in house; host or cells: baculovirus-infected insect cells (SF9)
# T1 sequence (O14920 1-756): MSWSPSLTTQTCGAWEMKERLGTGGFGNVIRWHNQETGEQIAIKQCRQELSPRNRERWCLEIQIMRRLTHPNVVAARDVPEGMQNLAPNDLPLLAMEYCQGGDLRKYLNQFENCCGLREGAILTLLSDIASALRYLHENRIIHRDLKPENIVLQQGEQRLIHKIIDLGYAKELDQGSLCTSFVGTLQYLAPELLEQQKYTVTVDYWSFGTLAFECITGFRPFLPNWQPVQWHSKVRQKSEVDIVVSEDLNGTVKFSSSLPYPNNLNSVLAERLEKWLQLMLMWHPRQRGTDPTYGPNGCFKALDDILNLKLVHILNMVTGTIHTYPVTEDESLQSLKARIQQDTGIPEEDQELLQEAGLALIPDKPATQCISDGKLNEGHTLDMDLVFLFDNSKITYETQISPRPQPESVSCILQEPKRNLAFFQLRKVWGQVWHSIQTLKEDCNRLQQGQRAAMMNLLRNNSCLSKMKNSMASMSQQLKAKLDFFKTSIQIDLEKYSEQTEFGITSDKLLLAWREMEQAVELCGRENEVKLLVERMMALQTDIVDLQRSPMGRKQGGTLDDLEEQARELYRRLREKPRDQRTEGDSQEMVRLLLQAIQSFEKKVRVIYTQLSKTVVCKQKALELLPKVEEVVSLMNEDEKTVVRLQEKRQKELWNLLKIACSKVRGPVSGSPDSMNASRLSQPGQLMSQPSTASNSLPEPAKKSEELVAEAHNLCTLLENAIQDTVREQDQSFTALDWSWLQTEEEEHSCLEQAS
# T1 sequence (O15111 1-745): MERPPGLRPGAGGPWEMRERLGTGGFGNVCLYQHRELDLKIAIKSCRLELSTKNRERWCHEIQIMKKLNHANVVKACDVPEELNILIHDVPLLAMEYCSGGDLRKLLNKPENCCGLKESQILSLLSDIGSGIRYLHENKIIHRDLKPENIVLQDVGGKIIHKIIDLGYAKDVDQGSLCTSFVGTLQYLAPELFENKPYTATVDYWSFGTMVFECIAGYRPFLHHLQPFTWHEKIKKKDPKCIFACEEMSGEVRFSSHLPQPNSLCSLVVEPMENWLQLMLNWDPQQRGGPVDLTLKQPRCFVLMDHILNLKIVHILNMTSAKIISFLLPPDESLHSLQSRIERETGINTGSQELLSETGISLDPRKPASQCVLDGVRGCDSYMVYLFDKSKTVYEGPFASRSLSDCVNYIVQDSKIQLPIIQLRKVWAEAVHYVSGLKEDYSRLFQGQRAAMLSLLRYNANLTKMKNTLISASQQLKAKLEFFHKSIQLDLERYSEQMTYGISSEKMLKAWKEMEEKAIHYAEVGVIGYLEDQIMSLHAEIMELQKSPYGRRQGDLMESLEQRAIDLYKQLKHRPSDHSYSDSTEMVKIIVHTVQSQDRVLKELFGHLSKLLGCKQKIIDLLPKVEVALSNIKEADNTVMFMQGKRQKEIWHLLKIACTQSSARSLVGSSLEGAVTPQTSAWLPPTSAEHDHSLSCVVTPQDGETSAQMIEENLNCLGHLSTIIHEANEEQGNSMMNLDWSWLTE
# Experiment: IKK heterodimer resin enzyme assay
# Assay type: biochemical
# Conditions: Table 1; read-out: HetD (IKK heterodimer assay values expressed as IC50)
# Description: cDNAs of human IKK1 and IKK2 were amplified by reverse transcriptase-polymerase chain reaction from human placental RNA (Clonetech). hIKK1 was subcloned into pFastBac HTa (Life Technologies) and expressed as N-terminal His6-tagged fusion protein. The hIKK2 cDNA was amplified using a reverse oligonucleotide primer which incorporated the peptide sequence for a FLAG-epitope tag at the C-terminus of the IKK2 coding region (DYKDDDDKD). The hIKK2:FLAG cDNA was subcloned into the baculovirus vector pFastBac. The rhIKK2 ([…]) mutant was constructed in the same vector used for wild type rhIKK2 using a QuikChange™ mutagenesis kit (Stratagene). Viral stocks of each construct were used to infect insect cells grown in 40L suspension culture. […] Cell lysates were stored at −80° C. until purification of the recombinant proteins was undertaken as described below.
# Isolation of rhIKK1/IKK2 Heterodimer
# The heterodimer enzyme was produced by coinfection in a baculovirus system (FLAG IKK2/IKK1 His; MOI=0.1 and I=72 hrs). Infected cells were centrifuged and the cell pellet (10.0 g) was suspended in 50 ml of buffer A. The protein suspension was microfluidized and centrifuged at 100,000×g for 45 min. Imidazole was added to the supernatant to a final concentration of 10 mM. The protein was allowed to bind 25 ml of Ni-NTA resin by mixing for 2 hrs. The protein-resin slurry was poured into a 25 ml column and washed with 250 ml of buffer A containing 10 mM imidazole followed by 125 ml of buffer A containing 50 mM imidazole. Buffer A, containing 300 mM imidazole, was then used to elute the protein. A 75 ml pool was collected and NP-40 was added to a final concentration of 0.1%. The protein solution was then dialyzed against buffer B. The dialyzed heterodimer enzyme was then allowed to bind to 25 ml of anti-FLAG M2 agarose affinity gel overnight with constant mixing. The protein-resin slurry was then centrifuged for 5 min at 2,000 rpm. The supernatant was collected and the resin re-suspended in 100 ml of buffer C containing 0.1% NP-40. The resin was washed with 375 ml of buffer C containing 0.1% NP-40. The protein-resin was poured into a 25 ml column and the enzyme eluted using buffer B containing FLAG peptide. Enzyme fractions (100 ml) were collected and concentrated to 20 ml using an Amicon membrane with molecular weight cut-off of 30 kDa. Bovine serum albumin was added to the concentrated enzyme to final concentration of 0.1%. The enzyme was then aliquoted and stored at −80° C.
# IKK Heterodimer Resin Enzyme Assay
# IKK heterodimer kinase activity was measured using a biotinylated IκBα peptide (Gly-Leu-Lys-Lys-Glu-Arg-Leu-Leu-Asp-Asp-Arg-His-Asp-Ser32-Gly-Leu-Asp-Ser36-Met-Lys-Asp-Glu-Glu) (American Peptide Co.). 20 ul of the standard reaction mixture contained 5 μM biotinylated IκBα peptide, 0.1 μCi/reaction [γ-^33P] ATP (Amersham) (about 1×10^5 cpm), 1 μM ATP (Sigma), 1 mM DTT (Sigma), 2 mM MgCl2 (Sigma), 2 mM MnCl2 (Sigma), 10 mM NaF (Sigma), 25 mM Hepes (Sigma) buffer, pH 7.6 and 20 μl enzyme solution and 10 μl inhibitor in a final volume of 50 μl. After incubation at 25° C. for 30 min, 150 μl resin (Dowex anion-exchange resin AG1X8 200-400 mesh) in 900 mM formate, pH 3.0 was added to each well to stop the reaction. Resin was allowed to settle for one hour and 50 ul of supernatant was removed to a Micolite-2 flat bottom plate (Dynex). 150 μl of scintillation fluid (Microscint 40) (Packard) was added to each well. Incorporation of [γ-^33P] ATP was measured using a Top-Count NXT (Packard).
row,SMILES,IC50 [µM]
1,"NSOOc1ccc(-n2nc(C(N)=O)c3c2-c2ccccc2CS3)cc1 [Example 10, 1-{4-[(aminothio)peroxy]phenyl}-1,5-dihydroisothiochromeno[4,3-c]pyrazole-3-carboxamide]",> 100
2,"Cc1ccc(S(=O)(=O)N2Cc3c(C(N)=O)nn(-c4ccc(S(N)(=O)=O)cc4)c3-c3ccccc32)cc1 [Example 15, 1-[4-(aminosulfonyl)phenyl]-5-[(4-methylphenyl)sulfonyl]-4,5-dihydro-1H-pyrazolo[4,3-c]quinoline-3-carboxamide]",> 100
3,"CCOC(=O)c1nn(-c2ccc(OOSN)cc2)c2c1SCc1ccccc1-2 [Example 9, ethyl 1-{4-[(aminothio)peroxy]phenyl}-1,5-dihydroisothiochromeno[4,3-c]pyrazole-3-carboxylate]",> 100
4,"CCOC(=O)c1nn(-c2ccc(S(N)(=O)=O)cc2)c2c1CNc1ccccc1-2 [Example 12, ethyl 1-[4-(aminosulfonyl)phenyl]-4,5-dihydro-1H-pyrazolo[4,3-c]quinoline-3-carboxylate]",> 100
5,"NSOOc1ccc(-n2nc(C(N)=O)c3c2-c2ccc4c(c2CS3)OCO4)cc1 [Example 11, 8-{4-[(aminothio)peroxy]phenyl}-4,8-dihydro[1,3]dioxolo[7,8]isothiochromeno[4,3-c]pyrazole-6-carboxamide]",> 100
6,"CCOC(=O)c1nn(-c2ccc(S(N)(=O)=O)cc2)c2c1CN(S(=O)(=O)c1ccc(C)cc1)c1ccccc1-2 [Example 14, ethyl 1-[4-(aminosulfonyl)phenyl]-5-[(4-methylphenyl)sulfonyl]-4,5-dihydro-1H-pyrazolo[4,3-c]quinoline-3-carboxylate]",> 100
